Reference: patent US5741671A, “Isolation cloning and expression of transmembrane water channel aquaporin 1(AQP1)” (The Johns Hopkins University, priority 1995, dated 1998)
“Also recorded” adds a separate entry of the source.

Legend:
[1] = test system: Red cell water channels; conditions: cited from earlier work
[2] = target: T1, AQP5 (Rattus norvegicus, UniProt P47864); experiment: Xenopus oocyte swelling assay, AQP5 (salivary) cRNA-injected oocytes (Example 11); format: cell-based
T1 construct: the entire open reading frame of the salivary cDNA; expressed in transfected cells; host or cells: Xenopus oocytes injected with cRNA from expression construct pXβG
T1 sequence (P47864 whole entry): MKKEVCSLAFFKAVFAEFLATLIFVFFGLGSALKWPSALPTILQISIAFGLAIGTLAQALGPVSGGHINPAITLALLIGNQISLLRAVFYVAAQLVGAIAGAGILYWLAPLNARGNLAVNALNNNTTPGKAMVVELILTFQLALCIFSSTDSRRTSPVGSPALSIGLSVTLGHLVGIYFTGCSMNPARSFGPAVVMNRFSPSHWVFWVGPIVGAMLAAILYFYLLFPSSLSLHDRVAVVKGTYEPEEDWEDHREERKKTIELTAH
Method: Functional Expression in Oocytes-A 1-kb BamHI fragment containing the 5'untranslated sequence and the entire open reading frame of the salivary cDNA was blunt-end-ligated into the BglII site of the Xenopus expression construct pXβG, which contains the HindIII-Pst insert of pSP64T in pBS II KS (Preston et al., 1992, Science, 256:385-387). Capped cRNA was synthesized in vitro after digestion with Xbal (Preston et al., 1993). Defolliculated stage V-VI Xenopus oocytes were injected with 50 nl of water or up to 5 ng of sample cRNAs and incubated for 3 days at 18° C. in 200 mosM modified Barth's buffer. The oocytes were transferred to 70 mosM modified Barth's buffer at 21° C.; oocyte swelling was monitored by videomicroscopy, and the coefficient of osmotic water permeability (Pf) was determined (Preston et al., 1992, 1993). Uptake of [^14 C]urea or [^14 C]glycerol was measured by incubating oocytes in 200 mosM Barth's buffer for 10-20 min at 21° C. followed by washing and SDS solubilization. No increase in ion conductance was found when control oocytes were compared to RNA-injected oocytes by two electrode voltage clamps (Preston et al., 1992). […]

[3] = target: T2, AQP1 (Homo sapiens, UniProt P29972); experiment: Xenopus oocyte swelling assay, AQP1 cRNA-injected oocytes (Example 11); format: cell-based; design: expressed in transfected cells; host or cells: Xenopus oocytes injected with AQP1 cRNA
T2 sequence (P29972 1-269): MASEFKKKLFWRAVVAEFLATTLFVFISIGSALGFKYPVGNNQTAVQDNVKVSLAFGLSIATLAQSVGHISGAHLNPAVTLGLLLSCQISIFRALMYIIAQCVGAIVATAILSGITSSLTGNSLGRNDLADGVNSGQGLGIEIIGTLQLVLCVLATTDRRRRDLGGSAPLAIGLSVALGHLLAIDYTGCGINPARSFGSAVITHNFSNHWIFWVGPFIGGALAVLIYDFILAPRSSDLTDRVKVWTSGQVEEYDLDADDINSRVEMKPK

[4] = 5 mM β-mercaptoethanol 30 min after 1 mM HgCl2

restoration of Pf of AQP5-expressing oocytes after HgCl2 [2, 4] | restoration of Pf of AQP1-expressing oocytes after HgCl2 [3, 4] | SMILES | restoration of the membrane water channel after HgCl2 ([1]; 5 mM β-mercaptoethanol) | inhibition of the red cell / membrane water channel ([1]; submillimolar concentrations) | inhibition of Pf of AQP5-expressing oocytes ([2]; 1 mM HgCl2, 5 min) | inhibition of the increase in Pf mediated by AQP1 ([3]; 1 mM HgCl2, 5 min)
restored | restored | OCCS [β-mercaptoethanol] | may be restored |  |  | 
 |  | [Cl][Hg][Cl] [HgCl2] |  | can be inhibited by submillimolar concentrations | comparable reduction; also recorded: reversibly inhibited | blocked
